# Laboratory results from US8343759B2, “Mammalian cell line expressing inducible c-Src” (National University Corporation Chiba University, priority 2007, dated 2013).
# Entries after “also recorded” stand apart in the source; their conditions may differ.
# Assays:
# 10T½ cells = experiment: PMA-stimulated macropinocytosis (RITC-dextran-labeled macropinosomes); assay type: cell-based, mouse; conditions: 10T½ cells pretreated with 5 μM SU6656 for 30 min, then 200 nM PMA plus 1 mg/ml RITC-dextran for 20 min
# Procedure: Data represent means±SD from three independent experiments. […] For comparison, the open bar is a reproduction of the data of Src-CFP in FIG. 2D. B: COS-1 cells transfected with c-Src plus Src(SH4-Unique)-GFP were cultured for 24 h and visualized with anti-Src (red) immunofluorescence and GFP fluorescence (green). C: 10T½ cells transfected with Src(SH4-Unique)-GFP (control) were treated with 200 nM PMA plus 1 mg/ml RITC-dextran for 15 min (1 PMA). D: 10T½ cells expressing Src(SH4-Unique)-GFP were stimulated with 200 nM PMA and cells were monitored at 30-sec intervals. The time of PMA addition is indicated as 0 sec (00′00″). E: 10T½ cells expressing Lyn(SH4-Unique)-GFP were treated with 200 nM PMA for 30 min and imaged by GFP fluorescence and Nomarski optics. F: 10T½ cells were pretreated with 5 μM SU6656 or none for 30 min and then stimulated with 200 nM PMA plus 1 mg/ml RITC-dextran for 20 min. […] Data represent means±SD from three independent experiments. […] Arrows indicate macropinosomes. N, nucleus. Bars, 10 μm. Macropinosomes wider than 2 μm labeled by c-Src or mutants were counted. All values were expressed as means±D from three independent experiments. Rhodamine B-isothiocyanate (RITC)-dextran (Mr 70,000), PMA, and wortmannin were from Sigma-Aldrich. SU6656 (Blake et al., 2000) was from Calbiochem. EGF was a kind gift of M. N. Fukuda.
# HeLa cells = experiment: EGF-induced macropinosome formation marked with Src(SH4-Unique)-GFP; assay type: cell-based, human; conditions: serum-starved HeLa cells expressing Src(SH4-Unique)-GFP, pretreated 30 min with 5 μM SU6656 or 200 nM wortmannin, then 50 ng/ml EGF for 15 min
# Procedure: During stimulation, cells were treated with 1 mg/ml RITC-dextran (B). White arrows indicate macropinosomes. […] The number of macropinosomes associated with Src(SH4-Unique)-GFP per 200 cells is shown. Data represent means±SD from three independent experiments. […] Equal amounts of lysates (input lysates) were analyzed by Western blotting with anti-pTyr and anti-actin antibodies. c-Src immunoprecipitates from lysates were analyzed by Western blotting with anti-Src[Y^418] and anti-Src antibodies. c-Src kinase activity was quantitated by measuring signal intensity using anti-Src[pY^418] antibody and normalized to the corresponding signal intensity detected by anti-Src. Results are expressed as mean values (fold) relative to the specific activity of c-Src in unstimulated control cells. […] The number of Src:(SH4-Unique)-GFP-labeled macropinosomes per 200 HeLa (left) or 100 A431 (right) cells was counted. Data represent means±SD from three independent experiments. […] F: Lysates were analyzed by Western blotting with anti-Src[Y^418], anti-Src, anti-pTyr, and anti-actin antibodies. […] White arrows indicate macropinosomes containing RITC-dextran. […] I: Co-localization of RITC-dextran with cathepsin D in macropinosomes was quantitated. […] Macropinosomes wider than 2 μm labeled by c-Src or mutants were counted. All values were expressed as means±D from three independent experiments. […]
# c-Src = target: T1, c-Src (Homo sapiens, UniProt P12931); experiment: c-Src kinase activity in immunoprecipitates by Western blotting with anti-Src[pY418]; assay type: cell-based; conditions: serum-starved HeLa cells pretreated with 5 μM SU6656, EGF for 15 min
# T1 construct: endogenous in cells; host or cells: HeLa (serum-starved, EGF-stimulated)
# Procedure: Results are expressed as mean values (fold) relative to the specific activity of c-Src in unstimulated control cells. […] F: Lysates were analyzed by Western blotting with anti-Src[Y^418], anti-Src, anti-pTyr, and anti-actin antibodies. […] Western blotting and immunoprecipitation were as described (Hirao et al., 1997; Mera et al., 1999; Yamaguchi et al., 2001; Kasahara et al., 2004). Cell lysates were prepared in Triton X-100 lysis buffer (50 mM HEPES, pH 7.4, 10% glycerol, 1% Triton X-100, 4 mM EDTA, 100 mM NaF, and 1 mM Na3VO4) containing protease inhibitors. For immunoprecipitation, lysates were incubated with protein G-Sepharose beads (Amersham) precoated with anti-Src (#327) overnight at 4° C.
# EGFR = EGFR (Homo sapiens, UniProt P00533); experiment: EGFR activation by Western blotting of lysates with anti-pTyr; assay type: cell-based; conditions: serum-starved HeLa cells pretreated with 5 μM SU6656, EGF for 15 min
# Procedure: F: Lysates were analyzed by Western blotting with anti-Src[Y^418], anti-Src, anti-pTyr, and anti-actin antibodies. […] Cell lysates were prepared in Triton X-100 lysis buffer (50 mM HEPES, pH 7.4, 10% glycerol, 1% Triton X-100, 4 mM EDTA, 100 mM NaF, and 1 mM Na3VO4) containing protease inhibitors.
# COS-I cells = experiment: FRAP of Src-GFP on macropinosomes; assay type: cell-based; conditions: cycloheximide-treated COS-I cells, pretreated 10 min with 1 mM NEM or 0.5% tannic acid
# Procedure: A-D: FRAP analysis of Src-GFP was performed in COS-I cells treated with cycloheximide. Cells expressing Src-GFP were pretreated with nothing (control) (A), I mM NEM (B), or 0.5% tannic acid (C) for 10 min. Enclosed areas (yellow circles) were photobleached and cells were monitored at 5-sec (A and C) or 60-sec intervals (B) for 10 min. Mean fluorescence intensities on macropinosomes were measured, and results are means±SD (control, n=4; NEM, n=3; Tannic acid, n=5). N, nucleus. Bars 5 μm. E: Equal amounts of lysates from S100 and P100 fractions of Src-GFP-expressing COS-I cells were analyzed by Western blotting with anti-Src, anti-cPLA2 (cytosol marker), and anti-desmoglein (plasma membrane marker) antibodies.
# For live-cell imaging, cells cultured in 35-mm glass-based dishes were transiently transfected with plasmid DNA on the preceding day. Time-lapse monitoring was performed using a Fluoview FV5OO with a 40×1.00 oil objective. Images were obtained at low power laser (0.3-3.0% laser) using the 488 nm line of an argon laser. FRAP was performed as described (Kasahara et at., 2004). If necessary, COS-I cells were treated with 200 μg/ml cycloheximide (Sigma-Aldrich) for 2 h before images were obtained. […] Mean fluorescence intensities were quantitated using Fluoview Tiempo time course version 4.2 software. […]
# T1 sequence (P12931 whole entry): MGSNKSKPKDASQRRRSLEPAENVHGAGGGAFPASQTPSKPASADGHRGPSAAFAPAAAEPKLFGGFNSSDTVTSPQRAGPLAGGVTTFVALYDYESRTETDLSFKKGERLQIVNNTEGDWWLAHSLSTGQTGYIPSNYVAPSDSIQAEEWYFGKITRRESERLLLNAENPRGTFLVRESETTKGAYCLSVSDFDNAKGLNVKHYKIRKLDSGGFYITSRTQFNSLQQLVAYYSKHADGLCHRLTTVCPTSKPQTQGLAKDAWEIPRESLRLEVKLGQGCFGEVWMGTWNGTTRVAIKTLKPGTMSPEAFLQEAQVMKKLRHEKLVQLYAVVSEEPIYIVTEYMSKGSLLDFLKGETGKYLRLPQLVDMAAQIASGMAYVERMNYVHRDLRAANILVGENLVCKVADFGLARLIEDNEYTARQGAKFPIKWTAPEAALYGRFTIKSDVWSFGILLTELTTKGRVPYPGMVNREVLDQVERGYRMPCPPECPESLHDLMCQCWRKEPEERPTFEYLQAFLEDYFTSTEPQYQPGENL
# EGFR, sequence (P00533 25-1210): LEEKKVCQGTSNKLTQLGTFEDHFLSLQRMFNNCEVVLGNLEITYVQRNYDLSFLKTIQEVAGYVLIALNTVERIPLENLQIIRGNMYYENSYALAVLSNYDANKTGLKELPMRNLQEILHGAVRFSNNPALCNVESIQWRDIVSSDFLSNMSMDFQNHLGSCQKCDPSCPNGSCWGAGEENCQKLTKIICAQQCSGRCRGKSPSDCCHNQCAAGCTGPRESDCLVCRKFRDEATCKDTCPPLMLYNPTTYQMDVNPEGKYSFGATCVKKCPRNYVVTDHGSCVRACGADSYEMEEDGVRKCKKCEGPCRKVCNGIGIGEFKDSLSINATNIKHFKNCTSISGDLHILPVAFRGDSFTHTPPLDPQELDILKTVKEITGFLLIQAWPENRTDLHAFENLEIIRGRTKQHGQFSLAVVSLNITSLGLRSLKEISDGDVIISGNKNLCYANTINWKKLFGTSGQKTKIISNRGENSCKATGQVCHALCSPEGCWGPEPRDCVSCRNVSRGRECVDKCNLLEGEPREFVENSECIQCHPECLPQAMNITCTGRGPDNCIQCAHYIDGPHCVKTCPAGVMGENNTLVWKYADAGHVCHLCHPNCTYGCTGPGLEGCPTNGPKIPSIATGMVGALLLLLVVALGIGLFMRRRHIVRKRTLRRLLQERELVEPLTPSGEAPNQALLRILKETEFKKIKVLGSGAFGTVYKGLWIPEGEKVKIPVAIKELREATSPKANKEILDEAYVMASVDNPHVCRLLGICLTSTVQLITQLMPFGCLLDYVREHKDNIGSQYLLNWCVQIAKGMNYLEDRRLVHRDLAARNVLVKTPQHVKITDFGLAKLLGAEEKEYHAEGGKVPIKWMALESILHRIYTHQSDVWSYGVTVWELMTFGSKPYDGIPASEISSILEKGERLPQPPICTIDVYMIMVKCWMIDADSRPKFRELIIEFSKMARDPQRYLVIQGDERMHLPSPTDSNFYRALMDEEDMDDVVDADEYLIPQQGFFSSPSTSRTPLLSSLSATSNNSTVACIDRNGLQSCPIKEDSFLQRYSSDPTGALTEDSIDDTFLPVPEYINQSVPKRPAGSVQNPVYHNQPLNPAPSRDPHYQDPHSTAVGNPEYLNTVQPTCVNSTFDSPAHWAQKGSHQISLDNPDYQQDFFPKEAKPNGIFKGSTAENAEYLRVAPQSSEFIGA
SMILES,inhibition of PMA-stimulated macropinocytosis (10T½ cells),inhibition of EGF-induced macropinosome formation (HeLa cells),effect on c-Src activity (c-Src),effect on EGFR activation (EGFR),inhibition of fluorescence recovery of Src-GFP on macropinosomes (COS-I cells)
CN(C)S(=O)(=O)c1ccc2c(c1)/C(=C/c1cc3c([nH]1)CCCC3)C(=O)N2 [SU6656],not significant; also recorded: not inhibited; also recorded: did not inhibit,partly inhibited,decreased c-Src activity below basal levels,without affecting,
"CCN1C(=O)C=CC1=O [NEM, N-ethyl maleimide]",,,,,inhibited
O=C(OC[C@H]1O[C@@H](OC(=O)c2cc(O)c(O)c(OC(=O)c3cc(O)c(O)c(O)c3)c2)[C@H](OC(=O)c2cc(O)c(O)c(OC(=O)c3cc(O)c(O)c(O)c3)c2)[C@@H](OC(=O)c2cc(O)c(O)c(OC(=O)c3cc(O)c(O)c(O)c3)c2)[C@@H]1OC(=O)c1cc(O)c(O)c(OC(=O)c2cc(O)c(O)c(O)c2)c1)c1cc(O)c(O)c(OC(=O)c2cc(O)c(O)c(O)c2)c1 [tannic acid],,,,,partly inhibited
